In publication PMC8880991 (eLife, 2022):
“Also recorded” adds a separate entry of the source. Read-outs that look alike come from different tables or passages of the source.

Experiments:
[1] = tested on: isolated pancreatic islets of ^EndomKir6.2^V108E mice; test: Static incubation assay of GSIS with diazoxide; type: cell-based, mouse; conditions: 100 µM diazoxide; for Amount of insulin (secreted/total), Mean: 0 µM SpTx1, mean of 6 mice
Protocol: (§1) Pancreatic islets were isolated as previously described ([Doliba et al., 2017]; [Li et al., 2009]). For each experiment, one to four adult mice (8–12 weeks of age) were euthanized by exposing them to an overdose of isoflurane through inhalation and a subsequent cervical dislocation. Following a perfusion through the common bile duct with a Hank’s balanced salt solution (HBSS; GIBCO, 14175) containing collagenase XI (1–2 mg/ml, Millipore-Sigma, C7657) and 1 mM CaCl2, the pancreas was dissected and digested at 37°C for 5 or 15 min. After the digestion, the collagenase in the pancreas homogenate was removed through several washes with HBSS containing 0.3% (wt/vol) bovine serum albumin, and dissociated islets were then hand-picked into a recovery media RPMI1640 (GIBCO, 21870) with the following supplements: 10% fetal bovine serum, 2 mM GlutaMAX, 1 mM sodium pyruvate, penicillin–streptomycin, and 10 mM HEPES titrated to pH 7.4 with NaOH. For the perifusion assay, the digested pancreases samples were subject to a Ficoll gradient purification, and the islets in the enriched fraction were washed with the recovery solution before handpicking islets. During this process, the samples from four mice were pooled to ensure a sufficient number of islets were used to perform assays under compared conditions with the same population in each independent round of experiment. The handpicked islets were placed in 5% CO2 incubator at 37°C to rest overnight prior to the static incubation assay or 2 days prior to the perifusion assay.
For insulin secretion in each independent static incubation assays, pancreatic islets from one mouse (8–12 weeks of age) were used as follows. […] Washed islets were equilibrated in the final wash step for 1 hr at 5% CO2 and 37°C. Using a previous study as reference ([Remedi et al., 2009]) and on the basis of the amount of insulin secretion and the sensitivity of insulin assay, we chose to use 5–10 islets in each assay. […]

wild-type mice = test: Blood glucose monitoring of overnight-fasted mice; type: in vivo, mouse; conditions: glibenclamide 40 mg/kg body weight, single intraperitoneal application; end of 2-hr observation period
Protocol: We evaluated the blood glucose levels of tested mice (8–12 weeks of age) using a digital glucometer (Clarity Diagnostics, BG1000). Induced diabetic mice were tested daily starting from the day after the final administration of tamoxifen until their blood glucose levels reached above 600 mg/dl. Following overnight (16 hr) fasting, blood glucose monitoring and plasma collection were then performed using specified mouse lines at designated time points over a 2-hr observation period in the next morning. […] At each given time point, the glucose level of a blood drop obtained from the cut tail tip was measured twice using a glucometer. For any case where the level was above 600 mg/dl, the blood sample was diluted by an equal volume of the phosphate-buffer solution titrated to pH 7.3 before the glucose level was remeasured for two times. Additionally, four to five drops (~12 μl) of tail vein blood were collected at individual specified time points into a tube containing K2EDTA (1.5 mg/ml blood) and centrifuged at 2000 × g for 5 min at 4°C. 5 μl of the resulting plasma was frozen in liquid nitrogen, stored at −20°C, and assayed using a colorimetric insulin-detecting ELISA kit (CrystalChem, 90080) within a week. Mice were grouped according to genotypes. Using a previous study as reference ([Remedi et al., 2009]), we determined the number of mice for individual groups. […]

[2] = tested on: β cells in isolated pancreatic islets from ^EndomKir6.2^V108E mice; test: Membrane potential (Vm), perforated whole-cell patch clamp; type: cell-based, mouse; conditions: glibenclamide; nominal glucose-free condition
Protocol: (§2) Electrophysiological membrane potential (Vm) measurements from individual cells in isolated but intact islets cultured on glass coverslips were performed using the perforated whole-cell patch-clamp method as described ([Yang et al., 2021]). Wax-coated electrodes (G85150T, Warner) were back filled with the intracellular solution containing (in mM): 76 K2SO4, 10 KCl, 10 NaCl, 6 MgCl2, 30 mannitol, 30 HEPES, where pH was titrated to 7.2 at 35°C with N-methyl-d-glucamine (NMG). The tip of the pipette was filled with this solution and the remainder was back filled with the same solution plus β-escin (6 or 8 µM). The free Mg^2+ concentration of this solution, taking the divalent cation-chelating action of SO4^2− into consideration, is estimated to be about 2 mM. The extracellular solution contained (in mM): 135 NaCl, 4 KCl, 2 CaCl2, 2 MgCl2, 10 HEPES, where pH was titrated to 7.4 at 35°C with NMG. Glucose was added to this solution as required and the osmolarity was adjusted to ~300 mOsm with mannitol. All salts were from Millipore-Sigma. Using the solutions described above, the initial input resistance of the electrode was typically 4–8 MΩ. The electrophysiological recordings were performed under a continuous perfusion condition, 0.3–0.4 ml/min (Instech), at ~35°C (TC-124A and TC-344B Warner). Islets were equilibrated in the recording chamber for 10–15 min before measurements were made. Adequate whole-cell access was achieved typically within 5–10 min.
(§3) The output of the patch-clamp amplifier (Axopatch 200B, Molecular Devices) was digitized at 2 kHz and stored for later analysis using Igor Pro (v8 or v9, Wavemetrics). The liquid junction potential has been subtracted from the results. To estimate the average Vm values under different conditions, the Vm traces were digitally Gaussian filtered at 0.1 Hz and the filtered data points in the last 50 s of a segment of interest were averaged. The filtered traces are superimposed on the illustrative original traces in the figures where appropriate. The variations in data values reflected both biological variability and technical errors (Figures 2D–F–6D–F). No data, which were successfully recorded over sufficient durations that allowed for adequate examination the membrane potential under the various specified conditions, were excluded.

[3] = tested on: β cells in isolated pancreatic islets from wild-type mice; test: as above; type: cell-based, mouse
Protocol: as §2, §3

[4] = tested on: isolated pancreatic islets of ^EndomKir6.2^V108E mice; type: cell-based, mouse
Protocol: as §1
For each perifusion experiment ([Doliba et al., 2017]), pancreatic islets from four mice (8–12 weeks of age) were used in the following manner. […] At the end of each experiment, the islets were recovered and placed in acidified ethanol to extract total insulin content as described above. Insulin in the samples was assayed using an insulin-specific radioimmunoassay kit (RI-13K, Millipore). For each condition, the study was performed three to six times. […] No experiments were excluded.

[5] = tested on: ^Rosa26mKir6.2^NDM-V108E mice; test: Blood glucose monitoring of overnight-fasted diabetic mice; type: in vivo, mouse; conditions: glibenclamide 40 mg/kg, single bolus
Description: (§4) In ^Rosa26mKir6.2^NDM and ^Rosa26mKir6.2^NDM-V108E mice, the expression of mutant Kir6.2 activity occurred in the pancreas upon the excision of the Neo/WSS cassette by the tamoxifen-dependent Cre recombinase ([Remedi et al., 2009]). Exposure to tamoxifen permitted the translocation of Cre recombinase from the cytoplasm to the nucleus in order to perform the excision between loxP sites within the targeted Rosa26 locus. To induce the expression of mutant Kir6.2 activity and consequently the diabetic phenotype in these mutant mice (8–12 weeks of age), corn oil containing tamoxifen (75 mg/kg body weight; prepared as described below) was injected intraperitoneally for five consecutive days. Injection sites were sealed with a tissue adhesive (3M Vetbond) to prevent leakage of the injected liquid.
(§5) We evaluated the blood glucose levels of tested mice (8–12 weeks of age) using a digital glucometer (Clarity Diagnostics, BG1000). Induced diabetic mice were tested daily starting from the day after the final administration of tamoxifen until their blood glucose levels reached above 600 mg/dl. […] At each given time point, the glucose level of a blood drop obtained from the cut tail tip was measured twice using a glucometer. […]

[6] = tested on: ^Rosa26mKir6.2^NDM-V108E mice; test: Plasma insulin assay (ELISA); type: in vivo, mouse; conditions: glibenclamide 40 mg/kg, single bolus
Description: as §4, §5

CC1=NS(=O)(=O)c2cc(Cl)ccc2N1 [diazoxide]
effect on insulin secretion ([1]; 16.7 mM glucose): lowered the insulin secretion in 16.7 mM glucose to the baseline level | Amount of insulin (secreted/total), Mean ([1]; 3 mM glucose): 0.2568 | Amount of insulin (secreted/total), Mean ([1]; 16.7 mM glucose): 0.2327

COc1ccc(Cl)cc1C(=O)NCCc1ccc(S(=O)(=O)NC(=O)NC2CCCCC2)cc1 [glibenclamide]
effect on blood glucose level (wild-type mice): lowered the blood glucose level of wild-type mice by half | effect on Vm [2]: elicited action potentials | Vm ([3]; 0.2 uM Glibenclamide in 5 mM Glucose, islet 1): -0.05335 V | Vm ([3]; 0.2 uM Glibenclamide in 5 mM Glucose, islet 2): -0.03306 V | Vm ([3]; 0.2 uM Glibenclamide in 5 mM Glucose, islet 3): -0.0403 V | Vm ([3]; 0.4 uM Glibenclamide in 0 mM Glucose, islet 1): -0.05043 V | Vm ([3]; 0.4 uM Glibenclamide in 0 mM Glucose, islet 2): -0.02061 V | Vm ([3]; 0.4 uM Glibenclamide in 0 mM Glucose, islet 3): -0.04501 V | Vm ([3]; 0.4 uM Glibenclamide in 0 mM Glucose, islet 4): -0.03684 V | Vm ([3]; 0.4 uM Glibenclamide in 0 mM Glucose, islet 5): -0.05294 V | Vm ([3]; 0.4 uM Glibenclamide in 0 mM Glucose, islet 6): -0.05777 V | Vm ([3]; 0.4 uM Glibenclamide in 8 mM Glucose, islet 1): -0.04669 V | Vm ([3]; 0.4 uM Glibenclamide in 8 mM Glucose, islet 2): -0.04799 V | Vm ([3]; 0.4 uM Glibenclamide in 8 mM Glucose, islet 3): -0.04272 V | Vm ([3]; 0.4 uM Glibenclamide in 8 mM Glucose, islet 5): -0.05311 V | Vm ([3]; 0.4 uM Glibenclamide in 8 mM Glucose, islet 6): -0.0321 V | effect on Vm ([3]; glibenclamide 0.4 µM, glucose 0 mM): dramatically depolarized Vm and triggered a train of action potentials | insulin secretion after removal of inhibitor and return to 3 mM glucose ([4]; 1 μM glibenclamide): the elevated insulin secretion largely persisted | effect on insulin secretion ([4]; 1 μM glibenclamide with glucose raised from 3 to 10 mM): yielded insulin secretion much greater than that from elevated glucose alone | insulin secretion in nonstimulating glucose (primary secretagogue) ([4]; 1 μM glibenclamide, 3 mM glucose, added 10 min before raising glucose): triggered sizable secretion of insulin; also recorded: stimulated sizable secretion of insulin | effect on insulin secretion ([4]; 1 μM glibenclamide, 16.7 mM glucose): caused much greater secretion of insulin than it did in the absence of glibenclamide | effect on elevated blood glucose level [5]: neither markedly lowered the elevated blood glucose level | effect on plasma insulin [6]: nor caused a rise of insulin in the plasma
